Measurements reported in PMC9518609, “Design and synthesis of new trimethoxylphenyl-linked combretastatin analogues loaded on diamond nanoparticles as a panel for ameliorated solubility and antiproliferative activity” (Journal of Enzyme Inhibition and Medicinal Chemistry, 2022).

What was measured:
Type in all cases: cell-based
MDA-MB-231 = experiment: MTT cytotoxic activity against breast MDA-MB-231 cancer cell line; conditions: MTT assay, 24 h treatment
Description: All the synthesised compounds were screened for their cytotoxic activity against breast MDA-MB-231 cancer cell line and compounds 6 and 12 against breast MCF-10A cell line taking CA-4 as a positive control for the analysis. The in vitro cytotoxicity results of the prepared compounds were systematised in Table 1. […] Structurally, the prepared molecules contain three structural variations; including rotatable hydrazide derivatives, the core exchange with imidazolone ring, and the ring expansion with triazinone motif. […] It is noticed that directly attached benzene ring to triazinone scaffold (compound 6) or bioisosteric group (thiazolyl ester) as in compound 12, may contribute to the astonishing cytotoxicity against breast MDA-MB-231 cancer cells.
To measure the cytotoxic activity of the synthesised derivatives 2a–13e in breast cancer (MDA-MB-231) cell line. MTT assay method was applied to assess cell viability assay. All experimental steps were conducted as reported earlier.
(§1) Part I: Biological Studies
(§2) 4.3. Biological evaluation
(§3) 4.3.1. Cytotoxic activity evaluation
(§4) The cytotoxic actvity of the synthesized derivatives 2a-13e was measured in MDA-MB-231 breast cancer cell line and derivatives 6 and 12 in MCF-10A […].
(§5) Cell viability assay was assessed using MTT assay method. Cells at density of 1 x 104 were seeded in a 96-well plate at 37 °C for 24 h under 5% CO2. After incubation, the cells were treated with different concentrations of the test schiff bases 2a-13e and incubated for 24 h, then 20 µl of MTT solution at 5 mg/mL was applied and incubated for 4 h at 37 °C.
Dimethyl sulphoxide (DMSO) in volume of 100 µl was added to each well to dissolve the purple formazan that had formed. The color intensity of the formazan product, which represents the growth condition of the cells, is quantified by using an ELISA plate reader (EXL 800, USA) at 570 nm absorbance. The experimental conditions were carried out with at least three replicates, and the experiments were repeated at least three times. […]

β-tubulin = β-tubulin polymerisation inhibition assay (Human Beta-tubulin ELISA kit) on MDA-MB-231 cells; conditions: MDA-MB-231 cell line, each compound at its IC50 concentration
Description: Trimethoxy phenyl fragment-containing natural stilbenoid-derived molecules, such as Colchicine and CA-4 bind to β-tubulin subunit at the colchicine binding site resulting in inhibition of microtubule assembly and suppression of its formation. […] From the obtained results it can be concluded that the antiproliferative activity of the synthesised triazinone-linked CA-4 derivatives may be derived from the inhibition of microtubule assembly.
Triazinone derivatives 6 and 12 were assessed for their tubulin inhibitory activity according to manufacturer’s instructions using # abcam Human Beta-tubulin simple step ELISA Kit ab245722.
as §1, §2, §3, §4, §5
Dimethyl sulphoxide (DMSO) in volume of 100 µl was added to each well to dissolve the purple formazan that had formed. The color intensity of the formazan product, which represents the growth condition of the cells, is quantified by using an ELISA plate reader (EXL 800, USA) at 570 nm absorbance. The experimental conditions were carried out with at least three replicates, and the experiments were repeated at least three times.
4.3.2. Tubulin inhibitions Assay
Compounds 6, 12 and CA-4 were evaluated for their tubulin inhibitory activity according to manufacturer’s instructions using # abcam Human Beta-tubulin simplestep ELISA Kit ab245722. MDA-MB-231 cells were trypsinized, counted and seeded at the 2 × 105 into 96-well micro titer plates. […]
(O.D.) was measured at 450±10 nm using microplate reader (Spectromax Plus 96 well plate […]

MDA-MB-231 cells = experiment: Annexin V-FITC/PI apoptosis staining assay; conditions: MDA-MB-231, at IC50, 24 h; for percentage of late apoptotic cells (upper right quadrant): untreated control 0.13%
Description: The effect of compounds 6 and 12 on apoptosis percentage rate was carried out using annexin V-FITC/Propidium iodide (PI) biparametric cytofluorimetric double staining analysis in MDA-MB-231 cells.
Apoptosis in MDA-MB-231 cells was investigated using a fluorescent Annexin V-FITC/PI detection kit (BioVision Annexin V-FITC Apoptosis Detection Kit, Catalog #: K101) by flow cytometry assay. All experimental steps were conducted as reported earlier. […]
4.3.4.1. Apoptosis assay for compounds 6 and 12
Apoptosis in MDA-MB-231 cells was investigated using fluorescent Annexin V-FITC/ PI detection kit (BioVision Annexin V-FITC Apoptosis Detection Kit, Catalog #: K101) by flow cytometry assay. MDA-MB-231 cells at a density of 2 × 10^5 per well were treated […]
stained with Annexin V-FITC/ PI dye for 15 min in the dark at 37 °C. […]
All experiments were done in triplicates. […]

caspase 3/7 = experiment: Caspase 3/7 green flow cytometry assay in MDA-MB-231 cells; conditions: MDA-MB-231, at IC50, 24 h
Description: Further, it is important to check effector caspase 3/7. The cleavage of caspases is specifically responsible for programmed cell death and apoptosis. […] The results were shown in Figure 5 and the expression level of caspase 3/7 was increased when compared with no control cells.
Caspase 3/7 in MDA-MB-231 cells was detected using CellEvent® Caspase 3/7 Green Detection Flow Cytometry Assay Kit. Caspase 3/7 activity in the MDA-MB-231 cell line was detected in the presence of compounds 6 and 12 at their IC50 concentration (µM) using CellEvent® caspase 3/7 green detection flow cytometry assay kit according to the manufacturer’s directions. All experimental steps were conducted as reported earlier.
4.3.4.3. Caspase 3/7 assay for compounds 6 and 12
Caspase 3/7 in MDA-MB-231 cells was investigated using CellEvent® Caspase 3/7 Green Detection Flow Cytometry Assay Kit. Caspase 3/7 activity in MDA-MB-231 cell line was detected in the presence of compounds 6 and 12 at their IC50 concentration (µM) using CellEvent® caspase 3/7 green detection flow cytometry assay kit according to manufacturer’s directions. […] cells at a density of 2.5 × 10^5 per well were harvested and washed with ice cold PBS, and cell lysates were prepared and combined with reaction buffer and incubated with specific colorimetric substrates (Caspase 3/7 Detection Reagent) at 37 °C for 6 h. Detection reagent is composed of DNA binding dye conjugated to caspase 3 and caspase 7 recognition sequence (DEVD) by a short peptide linker. The released DNA binding dye binds DNA producing a bright and stable signal. Finally, the samples were analyzed at 488 nm in a BD FACS Calibur flow cytometer. All experiments were performed in triplicates.
Information Classification: General 4

Compound | IC50 (MDA-MB-231; Homo sapiens, MDA-MB-231) [nM] | % Inhibition of β-tubulin polymerisation (β-tubulin) [%] | increase of percentage of early apoptotic cells relative to no treatment control (MDA-MB-231 cells) [fold] | increase of percentage of total apoptotic cells compared with no treatment control (MDA-MB-231 cells) [fold] | percentage of late apoptotic cells (upper right quadrant) (MDA-MB-231 cells) [%] | Casp3/7 (percentage of activated caspase 3/7) (caspase 3/7) [%] | increase in caspase 3/7 activation relative to untreated control (caspase 3/7) | IC50 (MDA-MB-231) [nM]
COc1cc(C=C2N=C(c3cc(OC)c(OC)c(OC)c3)N(c3ccccc3)NC2=O)cc(OC)c1OC [Compound 6, 2-phenyl-5-(3,4,5-trimethoxybenzylidene)-3-(3,4,5-trimethoxyphenyl)-1,2-dihydro-1,2,4-triazin-6(5H)-one] | 1360 ± 100 | 77.61 ± 0.10 | 6.80 | 21.86 | 23.28 | 12.87 | about 15.70 fold | –
ethyl 2-(2-(6-oxo-5-(3,4,5-trimethoxybenzylidene)-3–(3,4,5-trimethoxyphenyl)-5,6-dihydro-1,2,4-triazin-2(1H)-yl)thiazol-4-yl)acetate [Compound 12] | – | 68.28 ± 0.16 | 4.36 | 14.98 | 17.68 | 7.51 | ~9.16 fold | 1710 ± 110
